Laboratory results from patent publication US7232804B2, “Use of KPV tripeptide for dermatological disorders” (Zengen, Inc., priority 2001, dated 2007).
Where a SMILES comes first, the peptide text is derived from it.

Legend:
inflammation = conditions: relative to L-form tripeptide α-MSH (11-13); cited from earlier work
fever = conditions: relative to parent peptide or α-MSH(11-13); cited from earlier work
psoriatic lesions = test: Topical treatment of psoriatic lesions in a subject, KPV in mineral oil vs contralateral Hydrocortisone; conditions: for Adverse reactions or side effects: treatment continued for eleven days
Source text: In a subject with a diagnosed and confirmed greater than ten year history of dermatologically symptomatic psoriasis, KPV was used to treat inflammation, scaling, dryness, pain, erythema, and pruritis. The subject had psoriatic lesions located bilaterally on the volar (palm side) surface of the forearms. The lesions varied in time of existence for greater than ten years with variagated presentation. The subject presented no opportunistic infection of the integument secondary to the psoriatic lesions.
KPV in a crystalline form was prepared as disclosed in U.S. Pat. No. 5,028,592. Mineral oil was chosen as a carrier for the KPV preparation. One milligram of KPV was administered topically on the affected areas of the integument at a frequency of twice daily. For comparison purposes, a standard dosage amount of Hydrocortisone was placed on the contralateral area of the body of the subject that also manifested the dermatological sequelae of psoriasis. Topical administration was accomplished with standard cotton tipped applicators.
This treatment was continued for eleven days.

Compound: α-MSH sequence (4-10): the "core" α-MSH sequence (4-10)
- Anti-inflammatory activity / general potency (inflammation): little antipyretic and anti-inflammatory activity
- Antipyretic potency (fever): little antipyretic and anti-inflammatory activity

Compound: C[C@]12CCC(=O)C=C1CC[C@@H]1[C@@H]2[C@@H](O)C[C@@]2(C)[C@H]1CC[C@]2(O)C(=O)CO [Hydrocortisone]
- Improvement of symptoms associated with the psoriatic lesions (psoriatic lesions; KPV one milligram twice daily in mineral oil, Hydrocortisone standard dosage on contralateral side): showed improvement
- Period of symptom control / relief from symptoms (psoriatic lesions; psoriatic lesions on forearms): three hours
- Adverse reactions or side effects (psoriatic lesions): telangictasia and atrophy of skin

Compound: 8-13 sequence: α-MSH 8-13 fragment (RWGKPV; Designed polypeptide with anti-inflammatory, anti-bacterial, anti-fungal and antipyretic properties.)
- Antipyretic potency (fever): greater than that of the 11-13 sequence

Compound: CC(C)[C@H](NC(=O)[C@@H]1CCCN1C(=O)[C@@H](N)CCCCN)C(=O)O [KPV, lysine-proline-valine] (H-Lys-Pro-Val-OH)
- Adverse reactions or side effects (psoriatic lesions): No adverse reactions or side effects

Compound: 10-13 sequence: α-MSH(11-13) with glycine added to form the 10-13 sequence (GKPV; Designed polypeptide with anti-inflammatory, anti-bacterial, anti-fungal and antipyretic properties.)
- Antipyretic potency (fever): slightly decreased potency

Compound: 9-13 sequence: α-MSH 9-13 fragment (WGPKV; Designed polypeptide with anti-inflammatory, anti-bacterial, anti-fungal and antipyretic properties.)
- Antipyretic potency (fever): almost devoid of activity

Compound: Ac-[D-K11]-α-MSH 11-13-NH2
- Anti-inflammatory activity / general potency (inflammation): same general potency as the L-form

Compound: [Nle^4,D-Phe^7]-α-MSH
- Antipyretic potency (fever): approximately ten times more potent than the parent peptide
